Assay results from PubChem BioAssay AID1033 (Sanford-Burnham Center for Chemical Genomics, 2008).
Calls of active or inactive are those of the source. The rule behind the calls is not given here.

Each compound was assayed against Chaperone protein DnaK (Escherichia coli (strain K12)) (UniProt P0A6Y8) (assay: binders of DnaK substrate-binding domain, biophysical, NMR, chaperone (AID 1033)). Conditions: Purified DnaK SBD, NMR ligand binding.
Chain of Chaperone protein DnaK (Escherichia coli (strain K12)) (P0A6Y8 whole entry, looked up, the tested form may be a part): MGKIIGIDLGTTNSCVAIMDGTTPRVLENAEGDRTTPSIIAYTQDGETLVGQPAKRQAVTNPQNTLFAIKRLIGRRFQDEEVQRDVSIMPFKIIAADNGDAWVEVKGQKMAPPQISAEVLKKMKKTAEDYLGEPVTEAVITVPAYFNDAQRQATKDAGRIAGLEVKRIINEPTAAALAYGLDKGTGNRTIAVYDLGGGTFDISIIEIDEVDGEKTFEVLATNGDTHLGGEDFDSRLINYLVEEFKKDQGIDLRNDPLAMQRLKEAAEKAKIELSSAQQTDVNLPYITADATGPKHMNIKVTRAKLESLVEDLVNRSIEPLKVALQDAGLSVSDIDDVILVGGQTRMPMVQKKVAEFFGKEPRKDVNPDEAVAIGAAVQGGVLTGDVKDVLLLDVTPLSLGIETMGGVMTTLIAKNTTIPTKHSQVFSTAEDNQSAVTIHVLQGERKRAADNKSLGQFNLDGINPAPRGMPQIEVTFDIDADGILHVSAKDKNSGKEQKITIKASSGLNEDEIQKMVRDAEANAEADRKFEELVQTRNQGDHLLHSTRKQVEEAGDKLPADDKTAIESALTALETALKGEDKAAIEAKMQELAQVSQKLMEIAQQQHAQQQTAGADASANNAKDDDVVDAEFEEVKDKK
O=C(Nc1ccon1)c1ccc(Cl)s1 was tested, and the Kd was > 4 mM (inactive). For O=C(Nc1ccc(N2CCCC2=O)cc1)c1cccc(F)c1, the Kd was > 4 mM (inactive). In the case of O=C(Nc1ccccc1F)c1ccncc1, the Kd is reported as > 4 mM (inactive). With CN1C(=O)Cc2cc(S(N)(=O)=O)ccc21 the Kd was > 4 mM (inactive). In the case of O=C(Nc1ccccc1Cl)c1cnccn1, the Kd is reported as > 4 mM (inactive). In the case of CC(=O)Nc1ccc(NC(=O)c2ccnn2C)cc1, the Kd is reported as > 4 mM (inactive). In the case of CC(=O)OC/C=C(\C)CC/C=C(\C)CC/C=C(\C)CC/C=C(\C)CC/C=C(\C)CC/C=C(\C)CC/C=C(\C)CC/C=C(\C)CCC=C(C)C, the Kd is reported as > 4 mM (inactive). In the case of COc1c2occc2c(OC)c2c(=O)cc(C)oc12, the Kd is reported as > 4 mM (inactive). In the case of O=c1sc2ccccc2n1CN1CCOCC1, the Kd is reported as > 4 mM (inactive). For O=C1CSC(=Nc2cc(Cl)ccc2Cl)N1, the Kd was > 4 mM (inactive). COc1cc2c(c(OC)c1OC)-c1ccc(OC)c(=O)cc1[C@@H](NC(C)=O)CC2 was tested, and the Kd was > 4 mM (inactive). In the case of O=C1CCNc2cc3ccccc3cc21, the Kd is reported as > 4 mM (inactive). In the case of CC(=O)N1CCc2ccccc2C1CC(=O)O (centres undefined), the Kd is reported as > 4 mM (inactive). For Cc1csc2nc(N)nn12, the Kd was > 4 mM (inactive). For OCc1c[nH]c2ccccc12, the Kd was > 4 mM (inactive). For COc1cc2c(cc1-c1coc3c4c(c(OC)cc3c1=O)OC(C)(C)C=C4)OCO2, the Kd was > 4 mM (inactive). For Cc1ccc2c(c1)=C(c1sc(N)nc1O)C(=O)N=2, the Kd was > 4 mM (inactive). NCCN=C1NS(=O)(=O)c2ccccc21 was tested, and the Kd was > 4 mM (inactive). O=C(O)C1Cc2c([nH]c3ccccc23)CN1 (centres undefined) was tested, and the Kd was > 4 mM (inactive). In the case of O=C(Nc1ccon1)c1ccc(Br)o1, the Kd is reported as > 4 mM (inactive). In the case of COc1ccc2cc1Oc1ccc(cc1)C[C@H]1c3c(cc4c(c3Oc3cc5c(cc3OC)CCN(C)[C@@H]5C2)OCO4)CCN1C, the Kd is reported as > 4 mM (inactive). Cc1ccc2cc(C(=O)O)ccc2n1 was tested, and the Kd was > 4 mM (inactive). In the case of CC(O)C(=O)N/N=C/c1cccs1 (centres undefined), the Kd is reported as > 4 mM (inactive). With CC(C)(CO)NC(=O)c1ccccc1F the Kd was > 4 mM (inactive). For COc1ccccc1-c1cn[nH]c(=S)n1, the Kd was > 4 mM (inactive). In the case of O=C(Nc1nncs1)c1c(F)c(F)c(F)c(F)c1F, the Kd is reported as > 4 mM (inactive). COc1cc(O)cc(/C=C/c2ccccc2)c1 was tested, and the Kd was > 4 mM (inactive). For COc1c2c(cc3cc[n+](C)cc13)OCO2, the Kd was > 4 mM (inactive). For O=C(O)CCN1CCOCC1, the Kd was > 4 mM (inactive). O=C(Nc1ccncc1)Nc1ccc(F)cc1F was tested, and the Kd was > 4 mM (inactive). For O=C1CCC(=O)N1CNc1ccccc1, the Kd was > 4 mM (inactive). In the case of NCc1ccc2c(c1)OCO2, the Kd is reported as > 4 mM (inactive). With CC(=O)Nc1ccc2c(c1)n(C)c(=O)n2C the Kd was > 4 mM (inactive). With O=C1c2ccccc2C(=O)c2c(O)c(O)cc(O)c21 the Kd was > 4 mM (inactive). With Cc1ccccc1NC(=O)N1CCOCC1 the Kd was > 4 mM (inactive). For COc1cc(OC)c(-c2c(OC)cc(OC)cc2OC)c(OC)c1, the Kd was > 4 mM (inactive). In the case of O=S(=O)(Cc1ccc(Cl)cc1)N1CCCC1, the Kd is reported as > 4 mM (inactive). With Nc1nc(SCC(=O)c2ccc([N+](=O)[O-])cc2)n[nH]1 the Kd was > 4 mM (inactive). For Nc1ncnc(NC2CCS(=O)(=O)C2)c1[N+](=O)[O-] (centres undefined), the Kd was > 4 mM (inactive). For Nc1nc(SCc2ccccc2)ns1, the Kd was > 4 mM (inactive). In the case of O=C1c2cccnc2C(=O)N1Cc1ccc2c(c1)OCO2, the Kd is reported as > 4 mM (inactive). COc1cccc(-c2nc3ccc(O)cc3c(=O)o2)c1 was tested, and the Kd was > 4 mM (inactive). For NC(=O)c1ccc(NC(=O)C2CC2)cc1, the Kd was > 4 mM (inactive). With OCc1ccc2nonc2c1 the Kd was > 4 mM (inactive). For CSc1nc2nccc(N)n2n1, the Kd was > 4 mM (inactive). S=c1ccc(N2CCCCC2)n[nH]1 was tested, and the Kd was > 4 mM (inactive). In the case of CNC(=O)C(=O)Nc1c(C)cccc1C, the Kd is reported as > 4 mM (inactive). In the case of CC(C)C1COc2cc3oc(=O)ccc3cc2O1 (centres undefined), the Kd is reported as > 4 mM (inactive). With O=C1NC(=Nc2ccccc2Cl)SC1(CO)CO the Kd was > 4 mM (inactive). In the case of Cc1c(CO)cnn1-c1ccc(F)cc1, the Kd is reported as > 4 mM (inactive). For NCc1ccc(-c2cccs2)cc1, the Kd was > 4 mM (inactive). In the case of CC(=O)Oc1ccc2c(c1)c(C(C)=O)c(C)n2C, the Kd is reported as > 4 mM (inactive). In the case of Nc1ccc2sccc2c1, the Kd is reported as > 4 mM (inactive). With NC(=O)C1CCN(Cc2ccccc2)CC1 the Kd was > 4 mM (inactive). For CN(C)CC(O)C1CCOC(C)(C)C1 (centres undefined), the Kd was > 4 mM (inactive). With Oc1ccc([C@H]2Oc3cc(O)cc(O)c3C[C@H]2O)cc1 the Kd was > 4 mM (inactive). In the case of C[C@H](CCC(=O)O)[C@H]1CCC2C3C(CC[C@@]21C)[C@@]1(C)CC[C@@H](O)C[C@H]1C[C@@H]3O (some centres undefined), the Kd is reported as > 4 mM (inactive). With CCN1C[C@@]2(COC)C3[C@@H](OC)[C@H]4[C@@H]1[C@]3(C(OC)C[C@H]2O)C1C[C@@]2(O)[C@H](OC(=O)c3ccccc3)C1[C@]4(OC(C)=O)[C@@H](O)[C@@H]2OC (some centres undefined) the Kd was > 4 mM (inactive). In the case of COC1C(O)C(O[C@H]2CC[C@]3(C=O)C4C(CC[C@]3(O)C2)[C@@]2(O)CC[C@H](C3=CC(=O)OC3)[C@@]2(C)C[C@H]4OC(C)=O)OC(C)C1OC(C)=O (some centres undefined), the Kd is reported as > 4 mM (inactive). With CC1=CC(=O)C2C(C)(C)CCC[C@]2(C)[C@@]1(O)CCc1ccoc1 (some centres undefined) the Kd was > 4 mM (inactive). With Fc1ccc(CN2CCCNCC2)cc1 the Kd was > 4 mM (inactive). With O=c1[nH]c2c(c(=O)n1C1CCCCC1)CCC2 the Kd was > 4 mM (inactive). In the case of CC1(C)O[C@H]2[C@H](O)C[C@](O)(C(N)=O)C[C@H]2O1, the Kd is reported as > 4 mM (inactive). With O=C(O)c1csc(-c2ccccc2)n1 the Kd was > 4 mM (inactive). For COC(=O)c1ccc(/C=C2/NC(=S)NC2=O)cc1, the Kd was > 4 mM (inactive). With COc1cc2c(cc1OC)-c1nnnn1C(C)(C)C2 the Kd was > 4 mM (inactive). With Cc1nnc(N2CCc3ccccc3C2)[nH]c1=O the Kd was > 4 mM (inactive). With O=C1C2C3C=CC(C3)C2C(=O)N1c1ccccn1 (centres undefined) the Kd was > 4 mM (inactive). For N/C(=N/O)C1COc2ccccc2O1 (centres undefined), the Kd was > 4 mM (inactive). In the case of COc1ccc(C2(C)NC(=O)NC2=O)cc1 (centres undefined), the Kd is reported as > 4 mM (inactive). CC(=O)C1CCC2C3CCC4C[C@H](O)CCC4(C)C3C[C@H](O)C12C (some centres undefined) was tested, and the Kd was > 4 mM (inactive). With Cc1nnc(C)n1/N=C/c1cccs1 the Kd was > 4 mM (inactive). For CC(=O)O[C@H]1C[C@@H](OC(C)=O)C(C)(C)C2CC(=O)[C@]3(C)C(CC[C@@]4(C)[C@H](c5ccoc5)OC(=O)[C@H]5O[C@]543)[C@]21C (some centres undefined), the Kd was > 4 mM (inactive). In the case of CC(C)(C)P(=O)(O)c1ccccc1, the Kd is reported as > 4 mM (inactive). O=[N+]([O-])c1cccc(-c2c[n+](=O)c3c(n2[O-])CCC3)c1 was tested, and the Kd was > 4 mM (inactive). Nc1ncnc(NCCO)c1[N+](=O)[O-] was tested, and the Kd was > 4 mM (inactive). CC1O[C@@H](Oc2c(-c3ccc(O)c(O)c3)oc3cc(O)cc(O)c3c2=O)[C@H](O)[C@H](O)[C@H]1O (some centres undefined) was tested, and the Kd was > 4 mM (inactive). With CC1(C)SCC(C(=O)O)N1C=O (centres undefined) the Kd was > 4 mM (inactive). In the case of CN(C)c1ccc(C2CC(=O)CC(=O)C2)cc1, the Kd is reported as > 4 mM (inactive). In the case of C[N+](C)(C)CC(O)CC(=O)O (centres undefined), the Kd is reported as > 4 mM (inactive). With Cc1nc(NC2=NCCC(=O)N2)nc2ccccc12 the Kd was > 4 mM (inactive). For CC(=O)N1CCN(S(=O)(=O)c2ccccc2)CC1, the Kd was > 4 mM (inactive). O=c1[nH]c2ccc(S(=O)(=O)NC3CC3)cc2[nH]1 was tested, and the Kd was > 4 mM (inactive). For NC12CC3CC(C1)CC(O)(C3)C2, the Kd was > 4 mM (inactive). For O=C(O)C1CSC(c2ccc(Cl)cc2)N1 (centres undefined), the Kd was > 4 mM (inactive). COC(=O)[C@@H]1OC(=O)C2OC23[C@@]1(C)CCC1[C@]2(C)C(C[C@H](O)[C@]13C)C(C)(C)[C@H](OC(C)=O)C[C@@H]2OC(C)=O (some centres undefined) was tested, and the Kd was > 4 mM (inactive). With NC(=O)/C=C/C(=O)Nc1ccccc1 the Kd was > 4 mM (inactive). In the case of Cc1ccc2nc(SCCC#N)nc(C)c2c1, the Kd is reported as > 4 mM (inactive). In the case of c1ccc(SCc2nc(-c3cccnc3)no2)cc1, the Kd is reported as > 4 mM (inactive). CC(C)=CCC[C@](C)(O)C1CC=C(C)CC1 (some centres undefined) was tested, and the Kd was > 4 mM (inactive). For Cc1cc(NC(=O)c2ccccc2C(=O)O)no1, the Kd was > 4 mM (inactive). Cc1cc(=O)[nH]c(N2CCCCC2)n1 was tested, and the Kd was > 4 mM (inactive). In the case of CCOC(=O)CC1Sc2ccccc2NC1=O (centres undefined), the Kd is reported as > 4 mM (inactive). In the case of CC1=C(C(N)=O)C(c2ccco2)C(C(N)=O)=C(C)N1, the Kd is reported as > 4 mM (inactive). For O=c1oc2ccccc2cc1O, the Kd was > 4 mM (inactive). For Cc1ccc(-c2nn(C)c(=O)c3ccccc23)cc1CO, the Kd was > 4 mM (inactive). With O=c1cc(-c2ccccc2)oc2c(O)c(O)ccc12 the Kd was > 4 mM (inactive). For O=C(c1cc(Cl)cc(Cl)c1)N1CCOCC1, the Kd was > 4 mM (inactive). For Fc1cc2nccnc2cc1N1CCSCC1, the Kd was > 4 mM (inactive). For CC(=O)O[C@@H]1C[C@@]2(C)[C@H](c3ccoc3)C[C@H]3O[C@]32[C@]2(C)C(=O)C(O)=C3C(C)(C)C(=O)C=C[C@]3(C)C12 (some centres undefined), the Kd was > 4 mM (inactive). In the case of O=CN1CCN(C(=O)c2ccccc2Cl)CC1, the Kd is reported as > 4 mM (inactive). With Cn1c(=O)c2c(ncn2C)n(C)c1=O the Kd was > 4 mM (inactive). For CC(NC(=O)C1CCCCC1)C(=O)NC1=NCCS1 (centres undefined), the Kd was > 4 mM (inactive). In the case of O=[N+]([O-])c1ccc(/C=N/c2ncn[nH]2)cc1, the Kd is reported as > 4 mM (inactive). CN(C)S(=O)(=O)N1CCc2ccccc21 was tested, and the Kd was > 4 mM (inactive). For O=C1CC[C@]23/C=C/C(=O)NCCCCNCCCNC(=O)/C=C/c4ccc(c2c4)O[C@@H]3C1, the Kd was > 4 mM (inactive). With CCCCn1c(=O)cc(O)c2ccccc21 the Kd was > 4 mM (inactive). For CC(=O)CC1(O)C(=O)Nc2ccc(Br)cc21 (centres undefined), the Kd was > 4 mM (inactive). In the case of NC(=O)CSc1ccc2nnc(-c3ccccc3)n2n1, the Kd is reported as > 4 mM (inactive). Nc1nc2ccc(N3CCOCC3)cc2s1 was tested, and the Kd was > 4 mM (inactive). With O=C(O)CCCCCCCCCCCCC1C=CCC1 (centres undefined) the Kd was > 4 mM (inactive). In the case of CCN(CC)C(=O)c1n[nH]c(=O)c2ccccc12, the Kd is reported as > 4 mM (inactive). For O=C(O)/C=C(\CC(=O)O)C(=O)O, the Kd was > 4 mM (inactive). In the case of COc1cc2c(cc1OC)[C@@]13CCN4CC5=CCOC6CC(=O)N2C1[C@H]6[C@H]5C[C@H]43 (some centres undefined), the Kd is reported as > 4 mM (inactive).
